From patent US5874235A, “Screening assays for cancer chemopreventative agents” (The Johns Hopkins University, priority 1997, dated 1999)
Where two headings read alike, the source gives them in different places.

Columns and labels:
[1] = tested on: HCT116 cells; experiment: Sphingomyelin levels, bacterial sphingomyelinase method; type: cell-based, human
Method: (§1) FIGS. 4A, 4B, 4C, 4D, 4E and 4F. The role of arachidonic acid in NSAID-mediated apoptosis. […] HCT116 and SW480 cells were treated with the indicated concentrations of SUS or INDO. Arachidonic acid (AA) levels were determined by measuring release of ^3 H-AA into the media as previously described (18). Data are indicated as the mean of three replicates with the error bars corresponding to the standard deviation. In addition, the nature of the released radiolabeled material was evaluated by thin layer chromatography as previously described (28). […] HCT116 and SW480 cells were incubated with ^3 H-choline chloride (0.5 mCi ml^-1, 80 Ci mmol^-1, New England Nuclear) for 48 hours. After labeling, cells were washed with HBSS (Gibco) and treated with SUS or INDO for the indicated times. Sphingomyelin measurements were performed using the bacterial sphingomyelinase method as previously described (18). Sphingomyelin levels at each time point are plotted as a percentage of that in untreated control cells. For each point, the mean of at least two independent experiments is presented with the error bars corresponding to the standard deviations. […] SW480 cells were treated with 200 μM arachidonic acid (AA), SUS (SUS) or behenic acid as a control fatty acid (FA) as indicated. […] SW480 cells were treated with suboptimal doses (100 μM) of arachidonic acid (AA), SUS (SUS), or both (AA+SUS) as indicated. After 48 hours of treatment, apoptosis and ceramide increases were assessed as described for FIGS. 1 and 3, respectively. Ceramide increases (left axis) were expressed as fold increases relative to untreated cells. Apoptosis (right axis) was expressed as percent apoptotic cells minus percent apoptotic cells in untreated cells (5.6%+/-2.4). Data are indicated as the mean of duplicates with the error bars corresponding to the standard deviation.
(§2) To test whether the increased ceramide was associated with evidence of augmented sphingomyelinase activity, we measured total sphingomyelin levels after SUS treatment. […] We also measured neutral sphingomyelinase activity in lysates from the treated cells and no differences were found. Neutral sphingomyelinase activity was assayed as described (18). After cell lysis, protein concentrations were determined using the Bradford method (Bio-Rad) and […] cellular protein was used in each assay. Neutral sphingomyelinase activity was determined by measuring the rate of hydrolysis of ^14 C-labelled sphingomyelin (Amersham). SW480 and HCT116 cell lines were treated with SUS (50, 200, and 600 μM) for 6 to 24 hours.

[2] = tested on: SW480 cells; experiment: as above; type: cell-based, human
Method: as §1, §2

[3] = tested on: HCT116 cells; experiment: Phosphatidylserine exposure by merocyanine staining; type: cell-based, human; details: 125 μM SUS, 48 hours
Method: (§3) Phosphatidylserine exposure was assessed by merocyanine staining as previously described (31). Forty-eight hours after treatment with 125 μM SUS, 44% of HCT116 stained with merocyanine versus 4% in the vehicle-treated control cells. Likewise, 74% of SW480 cells stained with merocyanine 50 hours after treatment with 200 μM SUS versus 1.5% of the vehicle-treated control cells.

[4] = tested on: SW480 cells; experiment: as above; type: cell-based, human; details: 200 μM SUS, 50 hours
Method: as §3

[5] = tested on: immortalized human keratinocytes (HaCat); experiment: Ceramide levels in immortalized keratinocytes; type: cell-based; details: 48 h, read-out: increase in ceramide levels
Method: Ceramide levels were measured using the Escherichia coli diacylglycerol (DAG) kinase assay as previously described (30) with the following modifications. After the initial lipid extraction, phases were broken by adding 2 ml chloroform and 2 ml 1M NaCl and lipids were washed with 1M NaCl prior to drying under nitrogen (32, 33). After solubilization, samples were sonicated for 15 seconds. The DAG reaction was performed for 30 minutes at 25° C. in a 100 μl reaction volume with 3.5 μg DAG kinase (Calbiochem) and […] γ^32 P-ATP (Dupont NEN, 6000 Ci/mmol). After extraction of the labeled lipids, the lower chloroform phase was washed with 1% HCl prior to drying under nitrogen. The solvent mixture for thin layer chromatography was chloroform:acetone:methanol:acetic acid:water (10:4:3:2:1). Samples were quantitated using a Phosphorimager (Molecular Dynamics).
This ability of SUS is not limited to colon cancer cells; primary fibroblasts and immortalized keratinocytes can increase ceramide levels and undergo apoptosis in response to SUS. […] Forty-eight hours after exposure to 200 μM SUS greater than 70% of the cells had undergone apoptosis and ceramide levels were 8.2 and 4.7 fold increased in HDF and HaCat cells, respectively. […]

[6] = tested on: SW480 cells; type: cell-based, human
Method: FIGS. 1A, 1B and 1C NSAID induce apoptosis in human colorectal cancer cells. In FIG. 1A, HCT116 and SW480 cells were treated with indomethacin (INDO) (300 μM) or SUS (125 μM for HCT116 and 200 μM for SW480 cells). Cells were collected at the indicated times, fixed and stained with Hoechst 33258 (23). The cells were counted and those with fragmented nuclei were scored as apoptotic. In FIG. 1B, HCT116 and SW480 cells were treated with SUS or INDO for 60 hours, harvested and stained as described above. Cells treated with SUS or INDO show the hallmarks of apoptosis.
(§4) This death appeared to be apoptotic, as it was accompanied by nuclear condensation and fragmentation (FIG. 1B) and exposure of phosphatidylserine groups on the cell surface, two hallmarks of apoptosis (11, 12).

[7] = tested on: HCT116 cells; type: cell-based, human
Method: FIGS. 1A, 1B and 1C NSAID induce apoptosis in human colorectal cancer cells. In FIG. […] Cells were collected at the indicated times, fixed and stained with Hoechst 33258 (23). The cells were counted and those with fragmented nuclei were scored as apoptotic. In FIG. 1B, HCT116 and SW480 cells were treated with SUS or INDO for 60 hours, harvested and stained as described above. Cells treated with SUS or INDO show the hallmarks of apoptosis.
as §4

[8] = tested on: neutral sphingomyelinase in HCT116 cell lysates; experiment: Neutral sphingomyelinase activity in lysates of treated cells (14C-sphingomyelin hydrolysis); type: cell-based, human; details: for neutral sphingomyelinase activity relative to untreated controls: 200 μM SUS
Method: as §2

SMILES: CSc1ccc(/C=C2/C(C)=C(CC(=O)O)c3cc(F)ccc32)cc1 [SUS, sulindac sulfide]
- decrease in sphingomyelin levels ([1]; 48 hours after SUS treatment): 40-50%
- decrease in sphingomyelin levels ([1]; suboptimal doses of SUS): inadequate to decrease sphingomyelin levels
- decrease in sphingomyelin levels ([2]; 48 hours after SUS treatment): 40-50%
- decrease in sphingomyelin levels ([2]; suboptimal doses of SUS): inadequate to decrease sphingomyelin levels
- cells stained with merocyanine [3]: 44%
- cells stained with merocyanine [4]: 74%
- fold induction at 200 µM [5]: 4.7
- apoptosis ([6]; 200 μM SUS, 16 hours): the majority of cells had not yet undergone apoptosis
- apoptosis ([6]; SUS 200 μM, with or without 10 μM CHX, 48 hours): underwent apoptosis
- apoptosis ([7]; 200 μM SUS, 16 hours): the majority of cells had not yet undergone apoptosis
- cell death ([7]; SUS 50 μM): induced neither
- apoptosis ([7]; SUS 125 μM, with or without 10 μM CHX, 48 hours): underwent apoptosis
- neutral sphingomyelinase activity relative to untreated controls ([8]; 6 hours): 90%
- neutral sphingomyelinase activity relative to untreated controls ([8]; 16 hours): 92%
- neutral sphingomyelinase activity in cell lysates ([8]; SUS 50, 200 and 600 μM, 6 to 24 hours): None of these treatments enhanced neutral sphingomyelinase activity
